Measured values reported in patent US20240300972A1, “THIOPHENE-BASED LIPIDS” (Oregon State University, priority 2021, published 2024).

What was measured:
BALB/c mice = assay: In vivo bioluminescence imaging after administration of Fluc mRNA nanoparticle formulations; design: species or system mouse; settings: for degree of transfection (light flux) in the tested series / luminescent signals detected by in vivo imaging / pattern / origin of luminescence (transfected tissues): intravenous administration; for degree of transfection (light flux) in the tested series / luminescent signals detected by in vivo imaging: mice; for pattern / origin of luminescence (transfected tissues): in vivo and ex vivo organs; for light flux compared to the negative control: normal (50:10:38.5:1.5) and highly PEGylated (50:7:38.5:4.5) formulations; for transfection after intramuscular administration: flanks of mice
Description: A nanoparticle formulation including firefly luciferase (Fluc) mRNA was administered to BALB/c mice by intravenous, intramuscular, intravitreal, or subretinal injection. The intravenous injection was performed by tail-vein or retro-orbital injection. Mice that received a dose of nanoparticle formulation were housed until bioluminescence imaging. Bioluminescence imaging is a method to quantify luminescent signals from the subject. Prior to bioluminescence imaging, the mice were sedated with inhalation of isoflurane. The sedated mice received a dose of D-luciferin salt, which is a substrate of firefly luciferase, by intraperitoneal injection at 150 mg/kg 10 minutes prior to bioluminescence imaging. Bioluminescence imaging was performed on the mice with various exposure times ranging from 1 to 300 seconds using IVIS Lumina XRMS from PerkinElmer. To evaluate the protein expression at an organ level, internal organs of a mouse, such as the liver, lungs, kidneys, spleen, lymph nodes, and heart, and external tissues of mouse, such as muscle tissues close to a site of injection, were excised.

[1] = system: HeLa (human cervical epithelial cells); assay: In vitro transfection efficiency of FLuc mRNA LNPs, ONE-Glo Luciferase Assay; format: cell-based; settings: for transfection profile and cytotoxicity: compared to negative control (PBS) and positive control (MC3 LNPs at the same dose); for dose response of transfection efficiency: 50 vs 200 ng/well
Description: (§1) Mammalian cell lines used to measure cytotoxicity and transfection efficiency include HeLa (human cervical epithelial cells), HEK293T/17 (human embryonic kidney cells), HepG2 (human liver epithelial-like cells), and Jurkat E6-1 (human T-lymphocytes). The cells were seeded at 4000 cells/well in a 96-well plate and incubated for 24 hours. The next day, the LNPs of interest were diluted with 1×PBS to 50 ng/ul and administered at predetermined doses to the cells. The cell viability and transfection efficiency were evaluated on the following day (after 24-hour incubation of cells with LNPs). The cell viability was measured with Promega CellTiter-Fluor Cell Viability Assay, and the transfection efficiency was measured with Promega ONE-Glo Luciferase Assay System using Tecan Infinite M200 PRO multimode plate reader instrument. The dose range varied from 50 to 200 ng of nucleic acid per well.

[2] = system: HEK293T/17 (human embryonic kidney cells); assay: as above; format: cell-based; settings: HEK293T/17, 200 ng (identical dose)
Description: as §1

[3] = system: HepG2 (human liver epithelial-like cells); assay: as above; format: cell-based; settings: HepG2, 200 ng (identical dose)
Description: as §1

| Molecule | degree of transfection (light flux) in the tested series (BALB/c mice) | luminescent signals detected by in vivo imaging (BALB/c mice) | pattern / origin of luminescence (transfected tissues) (BALB/c mice) | transfection profile and cytotoxicity ([1]; HeLa) | light flux compared to the negative control (BALB/c mice; subretinal administration) | luciferase signal (BALB/c mice; subretinal administration, “normal” formulation (1.5% PEG)) | dose response of transfection efficiency ([1]; HeLa) | transfection after intramuscular administration (BALB/c mice) | decrease in transfection efficiency vs positive control ([1]; HeLa, MC3 LNPs at the same dose) | decline compared to the positive control [2] [fold] | decline compared to the positive control [3] [fold] | improvement compared to the positive control ([1]; HeLa cell line, 200 ng treatment) [fold] |
| --- | --- | --- | --- | --- | --- | --- | --- | --- | --- | --- | --- | --- |
| CCCCC/C=C\C/C=C\CCCCCCCCOC(=O)c1c(NC(=O)CCCCCCCCCCCCCCCCC)sc2c1CCNC2 [34a, (9Z,12Z)-octadeca-9,12-dien-1-yl 2-stearamido-4,5,6,7-tetrahydrothieno[2,3-c]pyridine-3-carboxylate] | highest light flux | successful transfection | liver and spleen | favorable transfection profile and cytotoxicity | – | – | – | – | – | – | – | – |
| CCCCC/C=C\C/C=C\CCCCCCCC(=O)Nc1sc2c(c1C(=O)N(CCCCCCCCCCCCCCCCCC)C(=O)CCCCCCC/C=C\C/C=C\CCCCC)CCN(C(=O)CCCN(C)C)C2 [26b, 6-(4-(dimethylamino)butanoyl)-2-((9Z,12Z)-octadeca-9,12-dienamido)-N-((9Z,12Z)-octadeca-9,12-dienoyl)-N-octadecyl-4,5,6,7-tetrahydrothieno[2,3-c]pyridine-3-carboxamide] | – | successful transfection | local transfection | favorable transfection profile and cytotoxicity | greater significant light flux | not detected | greater at 200 ng/well than at 50 ng/well | – | – | – | – | – |
| 6-(3-(dimethylamino)propanoyl)-2-((9Z,12Z)-octadeca-9,12-dienamido)-N-((9Z,12Z)-octadeca-9,12-dienoyl)-N-octadecyl-4,5,6,7-tetrahydrothieno[2,3-c]pyridine-3- [26a] | – | successful transfection | local transfection | – | greater significant light flux | – | greater at 200 ng/well than at 50 ng/well | successful and comparable transfection of local tissues | – | – | – | – |
| CCCCC/C=C\C/C=C\CCCCCCCCOC(=O)c1c(NC(=O)CCCCCCC/C=C\C/C=C\CCCCC)sc2c1CCN(C(=O)CCCN(C)C)C2 [35a, (9Z,12Z)-octadeca-9,12-dien-1-yl 6-(4-(dimethylamino)butanoyl)-2-((9Z,12Z)-octadeca-9,12-dienamido)-4,5,6,7-tetrahydrothieno[2,3-c]pyridine-3-carboxylate] | – | successful transfection | – | favorable transfection profile and cytotoxicity | – | – | – | – | up to 4 ×fold | – | – | – |
| CCCCC/C=C\C/C=C\CCCCCCCC(=O)N(C(=O)CCCCCCC/C=C\C/C=C\CCCCC)c1sc2c(c1C(=O)OCC)CCN(C(=O)CCCN(C)C)C2 [19da, ethyl 6-(4-(dimethylamino)butanoyl)-2-((9Z,12Z)—N-((9Z,12Z)-octadeca-9,12-dienoyl)octadeca-9,12-dienamido)-4,5,6,7-tetrahydrothieno[2,3-c]pyridine-3-carboxylate] | – | successful transfection | local transfection | favorable transfection profile and cytotoxicity | greater significant light flux | – | greater at 200 ng/well than at 50 ng/well | successful and comparable transfection of local tissues | – | 3 | 3 | ~5 |
| CCCCC/C=C\C/C=C\CCCCCCCCOC(=O)c1c(NC(=O)CCCCCCC/C=C\C/C=C\CCCCC)sc2c1CCNC2 [34b, (9Z,12Z)-octadeca-9,12-dien-1-yl 2-((9Z,12Z)-octadeca-9,12-dienamido)-4,5,6,7-tetrahydrothieno[2,3-c]pyridine-3-carboxylate] | highest light flux | successful transfection | – | favorable transfection profile and cytotoxicity | – | – | – | – | – | – | – | – |
| CCCCC/C=C\C/C=C\CCCCCCCC(=O)Nc1sc2c(c1C(=O)NCCCN(C)C)CCN(C(=O)CCCCCCC/C=C\C/C=C\CCCCC)C2 [29d, N-(3-(dimethylamino)propyl)-2-((9Z,12Z)-octadeca-9,12-dienamido)-6-((9Z,12Z)-octadeca-9,12-dienoyl)-4,5,6,7-tetrahydrothieno[2,3-c]pyridine-3-carboxamide] | – | successful transfection | spleen and lungs | favorable transfection profile and cytotoxicity | – | – | inverse dose response | – | – | – | – | – |
